In ChEMBL document CHEMBL3885861, “Open TG-GATES”:

Species on record: Rattus norvegicus
Experiment: Open TG-GATES - Regimen: Single
Assay type: toxicity, organism-based, Sprague-Dawley
Set-up: regimen Single, gender Male, age 6 weeks
Conditions: in vivo, sc, 0 mg/kg, route subcutaneous injection, dose 0 ug/Kg, dose level Control; for APTT / Bas / Eos / Fbg / Hb / Ht / Lym / MCH / MCHC / MCV / Mono / Neu / PT / Plat / RBC / Ret / WBC: tissue Blood; for KIDNEY_L / KIDNEY_R / KIDNEY_TOTAL: tissue Kidney; for LIVER: tissue Liver; for A/G / ALP / ALT / AST / BUN / CRE / Ca / Cl / DBIL / GLC / IP / K / LDH / Na / PL / RALB / TBIL / TC / TG / TP / gamma-GTP: tissue Plasma

CC(=O)O.N=C(N)NCCC[C@@H](NC(=O)[C@@H]1CCCN1C(=O)[C@@H]1CSSCCC(=O)N[C@@H](Cc2ccc(O)cc2)C(=O)N[C@@H](Cc2ccccc2)C(=O)N[C@@H](CCC(N)=O)C(=O)N[C@@H](CC(N)=O)C(=O)N1)C(=O)NCC(N)=O [DESMOPRESSIN ACETATE]
TERMINAL_BW (3 h): 211.5 g
APTT (3 h): 16.1 s
Bas (3 h): 0%
Eos (3 h): 0.8%
Fbg (3 h): 234.4 mg/dL
Hb (3 h): 12.9 g/dL
Ht (3 h): 39.7%
Lym (3 h): 77.8%
MCH (3 h): 21.7 pg
MCHC (3 h): 32.5%
MCV (3 h): 66.7 fL
Mono (3 h): 5.8%
Neu (3 h): 16%
PT (3 h): 12.1 s
Plat (3 h): 119.2 x10_4/uL
RBC (3 h): 595 x10_4/ul
Ret (3 h): 11.1%
WBC (3 h): 80.6 x10_2/uL
KIDNEY_L (3 h): 0.9 g
KIDNEY_R (3 h): 1 g
KIDNEY_TOTAL (3 h): 1.9 g
LIVER (3 h): 10.2 g
A/G (3 h): 2.1
ALP (3 h): 1272 IU/L
ALT (3 h): 37.8 IU/L
AST (3 h): 66.8 IU/L
BUN (3 h): 12.2 mg/dL
CRE (3 h): 0.3 mg/dL
Ca (3 h): 11.1 mg/dL
Cl (3 h): 104.2 meq/L
DBIL (3 h): 0.01 mg/dL
GLC (3 h): 188.6 mg/dL
IP (3 h): 9.2 mg/dL
K (3 h): 4.8 meq/L
LDH (3 h): 104 IU/L
Na (3 h): 138.6 meq/L
PL (3 h): 149.4 mg/dL
RALB (3 h): 3.7 g/dL
TBIL (3 h): 0.042 mg/dL
TC (3 h): 82.6 mg/dL
TG (3 h): 81.6 mg/dL
TP (3 h): 5.5 g/dL
gamma-GTP (3 h): 0.8 IU/L
TERMINAL_BW (6 h): 204.5 g
APTT (6 h): 18 s
Bas (6 h): 0%
Eos (6 h): 1.2%
Fbg (6 h): 239 mg/dL
Hb (6 h): 12.9 g/dL
Ht (6 h): 39.7%
Lym (6 h): 75.6%
MCH (6 h): 21 pg
MCHC (6 h): 32.5%
MCV (6 h): 64.6 fL
Mono (6 h): 8.6%
Neu (6 h): 14.4%
PT (6 h): 12.6 s
Plat (6 h): 109.8 x10_4/uL
RBC (6 h): 616 x10_4/ul
Ret (6 h): 8.8%
WBC (6 h): 104 x10_2/uL
KIDNEY_L (6 h): 0.9 g
KIDNEY_R (6 h): 0.9 g
KIDNEY_TOTAL (6 h): 1.8 g
LIVER (6 h): 9.2 g
A/G (6 h): 2.1
ALP (6 h): 1325 IU/L
ALT (6 h): 32 IU/L
AST (6 h): 62 IU/L
BUN (6 h): 12 mg/dL
CRE (6 h): 0.4 mg/dL
Ca (6 h): 11.2 mg/dL
Cl (6 h): 105.2 meq/L
DBIL (6 h): 0.01 mg/dL
GLC (6 h): 199.2 mg/dL
IP (6 h): 10 mg/dL
K (6 h): 5 meq/L
LDH (6 h): 99.4 IU/L
Na (6 h): 137.8 meq/L
PL (6 h): 145.6 mg/dL
RALB (6 h): 3.7 g/dL
TBIL (6 h): 0.048 mg/dL
TC (6 h): 85.2 mg/dL
TG (6 h): 53.6 mg/dL
TP (6 h): 5.5 g/dL
gamma-GTP (6 h): 1 IU/L
TERMINAL_BW (9 h): 199.2 g
APTT (9 h): 16.6 s
Bas (9 h): 0%
Eos (9 h): 1.2%
Fbg (9 h): 230.8 mg/dL
Hb (9 h): 12.8 g/dL
Ht (9 h): 39.7%
Lym (9 h): 66.6%
MCH (9 h): 21.2 pg
MCHC (9 h): 32.2%
MCV (9 h): 65.8 fL
Mono (9 h): 14%
Neu (9 h): 18.2%
PT (9 h): 12.7 s
Plat (9 h): 119.2 x10_4/uL
RBC (9 h): 603.8 x10_4/ul
Ret (9 h): 9.5%
WBC (9 h): 99.4 x10_2/uL
KIDNEY_L (9 h): 0.9 g
KIDNEY_R (9 h): 0.9 g
KIDNEY_TOTAL (9 h): 1.8 g
LIVER (9 h): 8.5 g
A/G (9 h): 2.1
ALP (9 h): 1072.6 IU/L
ALT (9 h): 31 IU/L
AST (9 h): 62.2 IU/L
BUN (9 h): 11.6 mg/dL
CRE (9 h): 0.3 mg/dL
Ca (9 h): 10.8 mg/dL
Cl (9 h): 105.8 meq/L
DBIL (9 h): 0.012 mg/dL
GLC (9 h): 189.6 mg/dL
IP (9 h): 10.8 mg/dL
K (9 h): 5 meq/L
LDH (9 h): 88.8 IU/L
Na (9 h): 138.2 meq/L
PL (9 h): 140 mg/dL
RALB (9 h): 3.6 g/dL
TBIL (9 h): 0.046 mg/dL
TC (9 h): 82.2 mg/dL
TG (9 h): 52.4 mg/dL
TP (9 h): 5.3 g/dL
gamma-GTP (9 h): 0.6 IU/L
TERMINAL_BW (24 h): 222.1 g
APTT (24 h): 16.1 s
Bas (24 h): 0%
Eos (24 h): 1%
Fbg (24 h): 241.7 mg/dL
Hb (24 h): 12.7 g/dL
Ht (24 h): 39.6%
Lym (24 h): 75%
MCH (24 h): 21.3 pg
MCHC (24 h): 32.2%
MCV (24 h): 66 fL
Mono (24 h): 7.8%
Neu (24 h): 16.2%
PT (24 h): 12.1 s
Plat (24 h): 118 x10_4/uL
RBC (24 h): 599.6 x10_4/ul
Ret (24 h): 9.9%
WBC (24 h): 86.4 x10_2/uL
KIDNEY_L (24 h): 0.9 g
KIDNEY_R (24 h): 1 g
KIDNEY_TOTAL (24 h): 1.9 g
LIVER (24 h): 10.6 g
A/G (24 h): 2
ALP (24 h): 1741.4 IU/L
ALT (24 h): 35.8 IU/L
AST (24 h): 65.2 IU/L
BUN (24 h): 16.4 mg/dL
CRE (24 h): 0.4 mg/dL
Ca (24 h): 11.2 mg/dL
Cl (24 h): 104.6 meq/L
DBIL (24 h): 0 mg/dL
GLC (24 h): 192.4 mg/dL
IP (24 h): 8.4 mg/dL
K (24 h): 5.3 meq/L
LDH (24 h): 138.4 IU/L
Na (24 h): 138.6 meq/L
PL (24 h): 156.2 mg/dL
RALB (24 h): 3.7 g/dL
TBIL (24 h): 0.016 mg/dL
TC (24 h): 82.2 mg/dL
TG (24 h): 125.2 mg/dL
TP (24 h): 5.5 g/dL
gamma-GTP (24 h): 1.2 IU/L
